Tests used:
SARS-CoV-2 3CLpro [1] = target: T1, SARS-CoV-2 3CLpro (Severe acute respiratory syndrome coronavirus 2, UniProt P0DTD1); assay: Co-crystal structure with SARS-CoV-2 3CLpro; format: binding; details: co-crystal with SARS-CoV-2 3CLpro
SARS-CoV-2 = assay: Anti-SARS-CoV-2 activity in A549 cells expressing the human ACE2 receptor (inhibition of SARS-CoV-2 replication); format: cell-based; details: for antiviral potency in A549 cells in comparison with compound Ref-2: versus Ref-2 (FIG. 7); for EC50: Severe acute respiratory syndrome coronavirus 2, A549-ACE2, 24 h, read-out: Antiviral Activity (EC50)
SARS-CoV-2 3CLpro [2] = target: T1, SARS-CoV-2 3CLpro; assay: biochemical; details: inhibition of SARS-CoV-2 3CLpro; 15 nM 3CLpro, 25 μM fluorogenic substrate, 37° C.; read-out: Inhibitory Activity (IC50)
SARS-CoV-2 3CLpro [3] = target: T1, SARS-CoV-2 3CLpro; format: binding; details: ITC, 25° C., pH 7.4; versus Ref-2 (compound P2)
[4] = tested on: CYP1A2, CYP2C9, CYP2C19, CYP2D6 and CYP3A4; assay: CYP inhibition evaluation in human liver microsomes; format: in vitro ADME; details: CYP1A2, 2C9, 2C19, 2D6, 3A4, up to 50 μM
Experimental: 20 μL of the substrate solutions of CYP1A2, CYP2C9, CYP2C19, CYP2D6 and CYP3A4 were each mixed with […] of the test compounds (final concentrations: 50 μM, 15 μM, 5 μM, 1.5 μM, 0.5 μM, 0.15 μM, 0.05 μM, 0 μM), followed by the addition of 158 μL of the HLM (Human liver microsome) working solution. Each of the mixtures was incubated at 37° C. for 10 minutes, and then mixed with 20 μL of NADPH cofactor, followed by incubation at 37° C. for additional 10 minutes. The reactions were terminated by adding 400 μL cold stop solution (200 ng/mL Tolbutamide and Labetalol in ACN). The samples are centrifuged at 4000 rpm for 20 minutes to precipitate protein. Next, 200 μL of the supernatant of each sample was transferred to 100 μL HPLC water and shaken for 10 minutes, and then analyzed by LC/MS/MS.

[5] = Plasma protein binding (PPB) by equilibrium dialysis; format: in vitro ADME; details: human and mouse plasma, 4 hours, 37° C., versus Ref-2
Experimental: The binding of compounds Ref-2, 86, 97, 98 and 170 to human and mouse plasma were measured using equilibrium dialysis. A loading matrix was prepared by diluting of a 400 μM stock of each of the compounds in DMSO by the plasma matrix. To prepare the time zero (To) samples to be used for recovery determination, 50 μL of the loading matrix were transferred in triplicate to the sample collection plate, immediately matched with opposite blank buffer to obtain a final volume of 100 μL of 1:1 matrix/dialysis buffer (v/v) in each well, followed by the addition of 500 μL of stop solution (200 ng/mL of tolbutamide, 200 ng/mL of labetalol, and 50 ng/mL of metformin in acetonitrile) and then stored at 2-8° C. pending further processes along with other post-dialysis samples. To load the dialysis device, 150 μL of the loading matrix and 150 μL of the dialysis buffer were transferred to the donor side and the receiver side of each well, respectively. The dialysis plate was placed in a humidified incubator at 37° C. with 5% CO2 on a shaking platform that rotated slowly (about 100 rpm) for 4 hours, then 50 μL of samples were taken from both the buffer side and the matrix side, and transferred into new 96-well plates. Each sample was mixed with an equal volume of opposite blank buffer (or matrix) to reach a final volume of 100 μL, followed by the addition of 500 µL of stop solution. The mixture was vortexed and centrifuged at 4000 rpm for about 20 minutes, then […] of the supernatant of each sample was removed for LC-MS/MS analysis. The single blank samples were prepared by transferring 50 μL of blank matrix to a 96 well plate and adding 50 μL of blank PBS buffer to each well. The blank plasma must match the species of plasma used in the plasma side of the well. Then the matrix-matched samples were further processed by adding 500 μL of stop solution, following the same sample processing method as the dialysis samples. The % Unbound, % Bound and % Recovery were calculated using the following equations: […]
in which F is the analyte concentration or peak area ratio of analyte/internal standard on the buffer (receiver) side of the membrane, T is the analyte concentration or peak area ratio of analyte/internal standard on the matrix (donor) side of the membrane, and T0 is the analyte concentration or the peak area ratio of analyte/internal standard in the loading matrix sample at time zero.

Omicron SARS-CoV-2 = details: FIG. 8, with Ref-2

SMILES: CNC(=O)c1cc(Br)cc([N+](=O)[O-])c1N[C@H]1CN(C(=O)c2cncc3ccccc23)CCC1(F)F [Compound 19, (S)-5-bromo-2-((4,4-difluoro-1-(isoquinoline-4-carbonyl)piperidin-3-yl)amino)-N-methyl-3-nitrobenzamide]
- binding site/mode in crystal structure (SARS-CoV-2 3CLpro [1]): bound into the catalytic pocket of 3CLpro
- antiviral potency in A549 cells in comparison with compound Ref-2 (SARS-CoV-2): better antiviral potency
- EC50 (SARS-CoV-2): < 100 nM
- IC50 (SARS-CoV-2 3CLpro [2]): < 100 nM
- binding affinity (dissociation constant, Kd) in comparison with compound Ref-2 (SARS-CoV-2 3CLpro [3]): higher binding affinity

SMILES: O=C(NC1CC(F)(F)C1)c1cc(Br)cc([N+](=O)[O-])c1N[C@H]1CN(C(=O)c2cncc3ccccc23)CC12CC2 [Compound 30, (R)-5-bromo-N-(3,3-difluorocyclobutyl)-2-((5-(isoquinoline-4-carbonyl)-5-azaspiro[2.4]heptan-7-yl)amino)-3-nitrobenzamide]
- antiviral potency in A549 cells in comparison with compound Ref-2 (SARS-CoV-2): better antiviral potency
- EC50 (SARS-CoV-2): < 100 nM
- IC50 (SARS-CoV-2 3CLpro [2]): < 100 nM
- binding affinity (dissociation constant, Kd) in comparison with compound Ref-2 (SARS-CoV-2 3CLpro [3]): higher binding affinity

SMILES: CNC(=O)c1cc(Cl)cc([N+](=O)[O-])c1N[C@H]1CN(C(=O)c2cncc3cccnc23)CCC1(F)F [Compound 98, (S)-5-chloro-2-((4,4-difluoro-1-(1,6-naphthyridine-8-carbonyl)piperidin-3-yl)amino)-N-methyl-3-nitrobenzamide]
- binding site/mode in crystal structure (SARS-CoV-2 3CLpro [1]): bind to 3CLpro similar to that of Compound 19
- effect on different CYP isoforms [4]: little effect on different CYP isoforms
- EC50 (SARS-CoV-2): < 100 nM
- IC50 (SARS-CoV-2 3CLpro [2]): < 100 nM
- free PPB ratio in comparison with compound Ref-2 [5]: better free PPB ratios
- activity against Omicron SARS-CoV-2 in Caco-2 cells (Omicron SARS-CoV-2): stronger activity against Omicron SARS-CoV-2

From patent US20260315452A1, “PROTEASE INHIBITORS AND USES THEREOF” (priority 2023, published 2026)
